Experimental data as given in patent US20160002248A1, “GLS1 INHIBITORS FOR TREATING DISEASE” (Board of Regents, The University of Texas System, priority 2014, published 2016).

Legend:
[1] = target: T1, purified recombinant human GAC (GLS1) (Homo sapiens, UniProt O94925); test: GLS1 Enzymatic Activity Assay (dual-coupled enzymatic assay); type: biochemical
T1 sequence (O94925 55-598 isoform O94925-3 limits assumed): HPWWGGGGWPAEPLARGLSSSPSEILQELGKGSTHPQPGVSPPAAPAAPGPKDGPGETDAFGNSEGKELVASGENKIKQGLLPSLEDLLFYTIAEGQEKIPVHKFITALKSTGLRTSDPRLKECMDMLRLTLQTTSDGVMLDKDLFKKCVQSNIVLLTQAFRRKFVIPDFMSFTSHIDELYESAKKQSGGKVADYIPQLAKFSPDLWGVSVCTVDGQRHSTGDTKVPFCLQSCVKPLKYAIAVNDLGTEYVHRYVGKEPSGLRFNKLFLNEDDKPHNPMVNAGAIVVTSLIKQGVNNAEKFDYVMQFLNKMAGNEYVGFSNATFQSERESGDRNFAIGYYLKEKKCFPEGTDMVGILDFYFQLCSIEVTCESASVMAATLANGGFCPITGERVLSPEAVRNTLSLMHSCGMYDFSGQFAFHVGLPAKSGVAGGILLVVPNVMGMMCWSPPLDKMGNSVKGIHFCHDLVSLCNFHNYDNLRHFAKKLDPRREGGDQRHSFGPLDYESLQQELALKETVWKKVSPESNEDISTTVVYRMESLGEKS
Description: GLS1 Enzymatic Activity Assay
The inhibition of purified recombinant human GAC by varying concentrations of inhibitors is assessed via a dual-coupled enzymatic assay. The glutamate produced by the glutaminase reaction is used by glutamate oxidase to produce α-ketoglutarate, ammonia, and hydrogen peroxide, with this hydrogen peroxide subsequently being used by horseradish peroxidase to produce resorufin in the presence of Amplex UltraRed. The assay buffer consisted of 50 mM Hepes (pH 7.4), 0.25 mM EDTA and 0.1 mM Triton X-100. GAC was incubated with potassium phosphate (10 minutes at room temperature) prior to incubation with inhibitor (10 minutes at room temperature). The final reaction conditions were as follows: 2 nM GAC, 50 mM potassium phosphate, 100 mU/mL glutamate oxidase (Sigma), 1 mM glutamine (Sigma), 100 mU/mL horseradish peroxidase (Sigma), 75 μM Amplex UltraRed (Life Technologies), and 1% (v/v) DMSO. The production of resorufin was monitored on a Perkin Elmer Envision plate reader (excitation 530 nm, emission 590 nm) either in a kinetics or endpoint mode (at 20 minutes). IC50 values were calculated using a four-parameter logistic curve fit.

A549 cells = test: Proliferation Assay (A549 cell viability, Cell Titer Fluor); type: cell-based; details: Homo sapiens, 72 hours
Description: A549 cells were routinely maintained in RPMI 1640 media (Gibco catalog number 11875-093) supplemented with 10% dialyzed fetal bovine serum using a humidified incubator (37° C., 5% CO2 and ambient O2). In preparation for the viability assay, cells were inoculated into 384-well black CulturPlates (Perkin Elmer) at a density of 1000 cells/well in a volume of 40 uL. Following a 24-hour incubation at 37° C., 5% CO2 and ambient O2, cells were treated with compound (10 uL) in a final DMSO concentration of 0.5% (v/v). The microplates were then incubated for 72 hours (37° C., 5% CO2 and ambient O2). Cell Titer Fluor (Promega) was subsequently added (10 uL of 6× reagent) and mixed for 15 minutes at room temperature. The plates were then incubated for 30 minutes (37° C., 5% CO2 and ambient O2) and fluorescence was subsequently read on the Perkin Elmer Envision plate reader. EC50 values were calculated using a four-parameter logistic curve fit.

Structure (SMILES) | IC50 [1] [nM] | EC50 (A549 cells) [nM]
Nc1nnc(CCCCc2cc3cc[nH]c3nn2)s1 [Example 1, 5-(4-(7H-pyrrolo[2,3-c]pyridazin-3-yl)butyl)-1,3,4-thiadiazol-2-amine] | 500 to 5000 | 
O=C(Cc1ccccn1)Nc1nnc(CCCCc2cc3cc[nH]c3nn2)s1 [Example 2, N-(5-(4-(7H-pyrrolo[2,3-c]pyridazin-3-yl)butyl)-1,3,4-thiadiazol-2-yl)-2-(pyridin-2-yl)acetamide] | 500 to 5000 | 500 to 5000
O=C(Cc1ccccc1)Nc1nnc(CCCCc2cc3cc(Cc4ccccc4)[nH]c3nn2)s1 [Example 4, N-(5-(4-(6-benzyl-7H-pyrrolo[2,3-c]pyridazin-3-yl)butyl)-1,3,4-thiadiazol-2-yl)-2-phenylacetamide] | < 100 | 100 to 500
O=C(Nc1nnc(CCCCc2cc3cc(Cc4ccccc4)[nH]c3nn2)s1)[C@@H](O)c1ccccc1 [Example 5, (S)—N-(5-(4-(6-benzyl-7H-pyrrolo[2,3-c]pyridazin-3-yl)butyl)-1,3,4-thiadiazol-2-yl)-2-hydroxy-2-phenylacetamide] | < 100 | 100 to 500
NCc1cccc(CC(=O)Nc2nnc(CCCCc3cc4cc(Cc5ccccc5)[nH]c4nn3)s2)c1 [Example 6, 2-(3-(aminomethyl)phenyl)-N-(5-(4-(6-benzyl-7H-pyrrolo[2,3-c]pyridazin-3-yl)butyl)-1,3,4-thiadiazol-2-yl)acetamide] | < 100 | 500 to 5000
O=C(Cc1ccccc1)Nc1nnc(CCCCCc2cc3cc(Cc4ccccc4)[nH]c3nn2)s1 [Example 7, N-(5-(5-(6-benzyl-7H-pyrrolo[2,3-c]pyridazin-3-yl)pentyl)-1,3,4-thiadiazol-2-yl)-2-phenylacetamide] | 500 to 5000 | 
O=C(Nc1nnc(CCCCc2cc3cc(C4CC4)[nH]c3nn2)s1)[C@@H](O)c1ccccc1 [Example 8, (S)—N-(5-(4-(6-Cyclopropyl-7H-pyrrolo[2,3-c]pyridazin-3-yl)butyl)-1,3,4-thiadiazol-2-yl)-2-hydroxy-2-phenylacetamide] | < 100 | 500 to 5000
O=C(Cc1ccccc1)Nc1ccn(CCCCc2cc3cc(Cc4ccccc4)[nH]c3nn2)c(=O)c1 [Example 9, N-(1-(4-(6-Benzyl-7H-pyrrolo[2,3-c]pyridazin-3-yl)butyl)-2-oxo-1,2-dihydropyridin-4-yl)-2-phenylacetamide] | < 100 | 500 to 5000
CC(C)CNC(=O)c1nnc(CCCCc2cc3cc(Cc4ccccc4)[nH]c3nn2)s1 [Example 10, 5-(4-(6-Benzyl-7H-pyrrolo[2,3-c]pyridazin-3-yl)butyl)-N-isobutyl-1,3,4-thiadiazole-2-carboxamide] | 100 to 500 | 500 to 5000
O=C(NCc1ccccc1)c1cn(CCCCc2cc3cc[nH]c3nn2)nn1 [Example 11, 1-(4-(7H-pyrrolo[2,3-c]pyridazin-3-yl)butyl)-N-benzyl-1H-1,2,3-triazole-4-carboxamide] | 500 to 5000 | 
CC(C)c1cc2cc(CCCCn3cc(C(=O)NCc4ccccn4)nn3)nnc2[nH]1 [Example 12, 1-(4-(6-isopropyl-7H-pyrrolo[2,3-c]pyridazin-3-yl)butyl)-N-(pyridin-2-ylmethyl)-1H-1,2,3-triazole-4-carboxamide] | 100 to 500 | 500 to 5000
CC(C)Cc1cc2cc(CCCCn3cc(C(=O)NCc4ccccc4)nn3)nnc2[nH]1 [Example 13, N-benzyl-1-(4-(6-isobutyl-7H-pyrrolo[2,3-c]pyridazin-3-yl)butyl)-1H-1,2,3-triazole-4-carboxamide] | 100 to 500 | 500 to 5000
O=C(NCc1ccccc1)c1cn(CCCCc2cc3cc(Cc4ccccc4)[nH]c3nn2)nn1 [Example 14, N-benzyl-1-(4-(6-benzyl-7H-pyrrolo[2,3-c]pyridazin-3-yl)butyl)-1H-1,2,3-triazole-4-carboxamide] | < 100 | 500 to 5000
O=C(NCc1ccccc1)c1cn(CCCCc2cc3c(I)c[nH]c3nn2)nn1 [Example 15, N-benzyl-1-(4-(5-iodo-7H-pyrrolo[2,3-c]pyridazin-3-yl)butyl)-1H-1,2,3-triazole-4-carboxamide] | 100 to 500 | 500 to 5000
O=C(NCc1ccccn1)c1cn(CCCCc2cc3cc(C4CC4)[nH]c3nn2)nn1 [Example 16, 1-(4-(6-cyclopropyl-7H-pyrrolo[2,3-c]pyridazin-3-yl)butyl)-N-(pyridin-2-ylmethyl)-1H-1,2,3-triazole-4-carboxamide] | 100 to 500 | 100 to 500
CC(C)(O)c1ccnc(CNC(=O)c2cn(CCCCc3cc4cc(C5CC5)[nH]c4nn3)nn2)c1 [Example 17, 1-(4-(6-Cyclopropyl-7H-pyrrolo[2,3-c]pyridazin-3-yl)butyl)-N-((4-(2-hydroxypropan-2-yl)pyridin-2-yl)methyl)-1H-1,2,3-triazole-4-carboxamide 2,2,2-trifluoroacetate] | 100 to 500 | 500 to 5000
Cc1ccc(CNC(=O)c2cn(CCCCc3cc4c(Br)c(C5CC5)[nH]c4nn3)nn2)cn1 [Example 18, 1-(4-(5-Bromo-6-cyclopropyl-7H-pyrrolo[2,3-c]pyridazin-3-yl)butyl)-N-((6-methylpyridin-3-yl)methyl)-1H-1,2,3-triazole-4-carboxamide 2,2,2-trifluoroacetate] | < 100 | 100 to 500
Cc1ccc(CNC(=O)c2cn(CCCCc3cc4c(Cl)c(C5CC5)[nH]c4nn3)nn2)cn1 [Example 19, 1-(4-(5-Chloro-6-cyclopropyl-7H-pyrrolo[2,3-c]pyridazin-3-yl)butyl)-N-((6-methylpyridin-3-yl)methyl)-1H-1,2,3-triazole-4-carboxamide 2,2,2-trifluoroacetate] | < 100 | 500 to 5000
Nc1nnc(CCCCc2cnc3[nH]c(Cc4ccccc4)nc3c2)s1 [Example 22, 5-(4-(2-benzyl-3H-imidazo[4,5-b]pyridin-6-yl)butyl)-1,3,4-thiadiazol-2-amine] | 500 to 5000 | 
O=C(Cc1ccccc1)Nc1nnc(CCCCc2cnc3[nH]c(Cc4ccccc4)nc3c2)s1 [Example 23, N-(5-(4-(2-benzyl-3H-imidazo[4,5-b]pyridin-6-yl)butyl)-1,3,4-thiadiazol-2-yl)-2-phenylacetamide] | 500 to 5000 | 
O=C(NCc1ccccn1)c1cn(CCCCc2cc3cc[nH]c3nn2)nn1 [Example 25, 1-(4-(7H-pyrrolo[2,3-c]pyridazin-3-yl)butyl)-N-(pyridin-2-ylmethyl)-1H-1,2,3-triazole-4-carboxamide] | 500 to 5000 | 
Nc1ccn(CCCCc2cc3cc(C4CC4)[nH]c3nn2)c(=O)c1 [Example 31, 4-amino-1-(4-{6-cyclopropyl-7H-pyrrolo[2,3-c]pyridazin-3-yl}butyl)-1,2-dihydropyridin-2-one] | 500 to 5000 | 
O=C(Cc1cccnc1)Nc1nnc(CCCCc2cc3cc(Cc4ccccc4)[nH]c3nn2)s1 [Example 57, N-[5-(4-{6-benzyl-7H-pyrrolo[2,3-c]pyridazin-3-yl}butyl)-1,3,4-thiadiazol-2-yl]-2-(pyridin-3-yl)acetamide] | < 100 | 
CC(C)(O)CNC(=O)c1nnc(CCCCc2cc3cc(Cc4ccccc4)[nH]c3nn2)s1 [Example 71, 5-(4-{6-benzyl-7H-pyrrolo[2,3-c]pyridazin-3-yl}butyl)-N-(2-hydroxy-2-methylpropyl)-1,3,4-thiadiazole-2-carboxamide] | 500 to 5000 | 
O=C(NCc1ccccn1)c1cn(CCCCc2cc3c4c([nH]c3nn2)CCC4)nn1 [Example 142, N-(pyridin-2-ylmethyl)-1-(4-(5,6,7,8-tetrahydrocyclopenta[4,5]pyrrolo[2,3-c]pyridazin-3-yl)butyl)-1H-1,2,3-triazole-4-carboxamide] | 500 to 5000 | 
O=C(NCc1cccc(OC(F)(F)F)c1)c1cn(CCCCc2cc3c(C4=CCNCC4)c(C4CC4)[nH]c3nn2)nn1 [Example 199, 1-{4-[6-cyclopropyl-5-(1,2,3,6-tetrahydropyridin-4-yl)-7H-pyrrolo[2,3-c]pyridazin-3-yl]butyl}-N-{[3-(trifluoromethoxy)phenyl]methyl}-1H-1,2,3-triazole-4-carboxamide] | 100 to 500 | 
